Data: patent US20240216352A1 (priority 2022, published 2024)
Where “and” joins values, the source holds several entries; their conditions need not be identical. Equal values may be shown once.

Assays:
[1] = system: participants with PPF; experiment: Phase 2 study, PPF cohort: safety and blood pressure; format: in vivo, human; conditions: for Treatment discontinuations: 26-week treatment phase; for Nadir postdose reduction from baseline in mean seated systolic blood pressure: day 1
Method: A total of 123 participants with PPF were randomized. Participants (age ≥21 years) were randomized (1:1:1) to receive 30 mg or 60 mg Compound A or PBO twice daily for 26 weeks. […] Immunosuppressive medications (mycophenolate mofetil, mycophenolic acid, azathioprine and/or tacrolimus) were permitted only if dosing is stable for ≥6 months prior to screening. If receiving antifibrotic agents pirfenidone or nintedanib, patients had to receive a stable dosage for ≥3 months prior to screening and during the screening period; if not receiving pirfenidone or nintedanib, patients had to be naive to both drugs or not have received either 4 weeks prior to Day 1. A total of 47 (38.2%) subjects were receiving antifibrotic treatment (with or without immunosuppression therapy). Of those subjects, 34 were being treated with nintedanib and 13 with pirfenidone. Participants were stratified by usual interstitial pneumonia (UIP) pattern (presence versus absence) and background therapy (antifibrotics+/−ILD-targeted immunosuppression versus ILD-targeted immunosuppression alone versus none). UIP pattern was present in 52% of subjects and unclassifiable ILD was the most common disease categorization.
Patient is experiencing any of the following, confirmed by retest within 15 minutes: • Seated systolic blood pressure <85 mmHg • Seated diastolic blood pressure <55 mmHg • Orthostatic hypotension
Patient is experiencing symptoms that, in the investigator's opinion, could be associated with a reduction in blood pressure and is also experiencing at least one of the following, confirmed by retest within 15 minutes: • Seated systolic blood pressure <100 mmHg or seated diastolic blood pressure <60 mmHg • Decrease of seated systolic blood pressure of ≥20 mmHg from the previous visit or decrease of seated diastolic blood pressure of ≥10 mmHg from the previous visit • Orthostatic hypotension • Orthostatic tachycardia

[2] = system: healthy Japanese participants; experiment: Phase 1 Part C MAD Japanese cohorts: blood pressure; format: in vivo, human
Method: The study was performed in 3 parts in 112 healthy male and female participants, including 24 Japanese participants. Female participants were to be not of childbearing potential. The present study was designed to evaluate the safety and tolerability, PK, and exploratory PD of an oral suspension of Compound A. Parts A and B (Cohort B1 only) enrolled healthy participants and was conducted at a site in The Netherlands and Part B (Cohort B2 to B5) enrolled healthy non-Japanese participants and was conducted at a site in the United Kingdom (UK). Part C enrolled healthy Japanese participants and was conducted at the same site in the UK.
Part C was a MAD study in 3 sequential dose escalation cohorts (30 mg BID, 60 mg BID, and 90 mg BID) of 8 healthy Japanese participants (6 active+2 placebo) each. Eligible participants in Cohorts C1 to C3 received study drug (Compound A or placebo) administered orally for 14 days.
Physical examinations, vital sign measurements (including orthostasis testing in Cohort A6, Cohort B3 to B5, and C1 to C3 at selected time points), 12-lead electrocardiogram (ECG), and clinical laboratory evaluations were performed at selected times throughout the study. In addition, Holter monitoring was performed for the first 24 hours post dose on Day 1 in Part A (not in FE/pH cohort), and also for the first 24 hours post dose on Day 1 and Day 14 in Parts B and C. Participants were closely monitored for adverse events (AEs). Blood samples were collected for up to 14 days (follow-up visit) after (last) study drug administration for PK analysis. In addition, blood and urine were collected for exploratory biomarker assessments and for biobanking of samples for potential analyses. Urine was collected for potential PK analysis for up to 96 hours after a single dose of Compound A or placebo was administered in the SAD part, and for up to 24 hours after the first (morning) dose of study drug on Day 1 and for up to 24 hours after the last (morning) dose of study drug on Day 14 in the MAD parts.

[3] = target: LPA1 (Homo sapiens, UniProt Q92633); experiment: LPA1 antagonism (Kb) in normal human lung fibroblasts; format: cell-based; set-up: LPA1Kb=5.9 nM in normal human lung fibroblasts; endogenous in cells; host or cells: normal human lung fibroblasts
LPA1, sequence (Q92633 whole entry): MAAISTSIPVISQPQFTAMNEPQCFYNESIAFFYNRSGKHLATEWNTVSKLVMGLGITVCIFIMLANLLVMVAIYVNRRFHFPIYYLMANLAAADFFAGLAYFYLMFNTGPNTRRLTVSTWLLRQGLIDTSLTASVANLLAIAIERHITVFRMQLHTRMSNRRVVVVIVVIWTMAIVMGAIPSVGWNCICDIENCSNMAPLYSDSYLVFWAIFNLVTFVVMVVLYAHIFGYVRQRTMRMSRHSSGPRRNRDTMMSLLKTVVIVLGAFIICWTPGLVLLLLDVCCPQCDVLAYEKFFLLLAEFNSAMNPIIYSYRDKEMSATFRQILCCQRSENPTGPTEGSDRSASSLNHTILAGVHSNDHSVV
Text: Compound A is currently in clinical development as a therapy for IPF and PF-ILD.

SMILES: CCCN(C)C(=O)OCc1c(-c2ccc(O[C@H]3CCC[C@H](C(=O)O)C3)c(C)n2)nnn1C [Compound A, (1S,3S)-3-((2-methyl-6-(1-methyl-5-(((methyl(propyl)carbamoyl)-oxy)methyl)-1H-1,2,3-triazol-4-yl)pyridin-3-yl)oxy)cyclohexane-1-carboxylic acid]
- Hepatobiliary toxicity ([1]; PPF cohort): No hepatobiliary toxicity
- Tolerability and safety findings ([1]; PPF cohort): well-tolerated, demonstrated no unexpected safety findings
- Low BP thresholds (events) ([1]; PPF, 30 mg): 30%
- Asymptomatic blood pressure reduction (prespecified criteria) ([1]; PPF, 30 mg BID (n = 40)): 9 (22.5) no. (%)
- COVID-19 ([1]; PPF, 30 mg BID (n = 40)): 6 (15.0) no. (%)
- Cough ([1]; PPF, 30 mg BID (n = 40)): 3 (7.5) no. (%)
- Deaths due to TEAEs ([1]; PPF, 30 mg BID (n = 40)): 0 no. (%)
- Diarrhea ([1]; PPF, 30 mg BID (n = 40)): 6 (15.0) no. (%)
- Discontinuations due to TEAEs ([1]; PPF, 30 mg BID (n = 40)): 1 no. (%) and 1 (2.5) no. (%)
- Dizziness ([1]; PPF, 30 mg BID (n = 40)): 0 no. (%)
- Dose reductions ([1]; PPF, 30 mg BID (n = 40)): 6 (15.0) no. (%)
- Dyspnea ([1]; PPF, 30 mg BID (n = 40)): 2 (5.0) no. (%)
- Hypertension ([1]; PPF, 30 mg BID (n = 40)): 0 no. (%)
- Hypotension ([1]; PPF, 30 mg BID (n = 40)): 4 (10.0) no. (%)
- Nausea ([1]; PPF, 30 mg BID (n = 40)): 4 (10.0) no. (%)
- Orthostatic hypotension (TEAE) ([1]; PPF, 30 mg BID (n = 40)): 2 (5.0) no. (%)
- Orthostatic hypotension within asymptomatic blood pressure reduction ([1]; PPF, 30 mg BID (n = 40)): 6 (15.0) no. (%)
- Orthostatic hypotension within symptomatic blood pressure reduction ([1]; PPF, 30 mg BID (n = 40)): 1 (2.5) no. (%)
- Rash ([1]; PPF, 30 mg BID (n = 40)): 3 (7.5) no. (%)
- Symptomatic blood pressure reduction (prespecified criteria) ([1]; PPF, 30 mg BID (n = 40)): 2 (5.0) no. (%)
- Vomiting ([1]; PPF, 30 mg BID (n = 40)): 3 (7.5) no. (%)
- ≥1 TEAE ([1]; PPF, 30 mg BID (n = 40)): 33 (82.5) no. (%)
- ≥1 TEAE related to study drug ([1]; PPF, 30 mg BID (n = 40)): 7 (17.5) no. (%)
- ≥1 TESAE ([1]; PPF, 30 mg BID (n = 40)): 4 (10.0) no. (%)
- Treatment discontinuations ([1]; PPF, 30 mg BID): 7.5%
- Nadir postdose reduction from baseline in mean seated systolic blood pressure ([1]; PPF, 30 mg): −10.7 mmHg
- Asymptomatic blood pressure reduction (prespecified criteria) ([1]; PPF, 60 mg BID (n = 42)): 13 (31.0) no. (%)
- COVID-19 ([1]; PPF, 60 mg BID (n = 42)): 6 (14.3) no. (%)
- Cough ([1]; PPF, 60 mg BID (n = 42)): 5 (11.9) no. (%)
- Deaths due to TEAEs ([1]; PPF, 60 mg BID (n = 42)): 0 no. (%)
- Diarrhea ([1]; PPF, 60 mg BID (n = 42)): 3 (7.1) no. (%)
- Discontinuations due to TEAEs ([1]; PPF, 60 mg BID (n = 42)): 0 no. (%)
- Dizziness ([1]; PPF, 60 mg BID (n = 42)): 4 (9.5) no. (%)
- Dose reductions ([1]; PPF, 60 mg BID (n = 42)): 5 (11.9) no. (%)
- Dyspnea ([1]; PPF, 60 mg BID (n = 42)): 0 no. (%)
- Hypertension ([1]; PPF, 60 mg BID (n = 42)): 1 (2.4) no. (%)
- Hypotension ([1]; PPF, 60 mg BID (n = 42)): 3 (7.1) no. (%)
- Nausea ([1]; PPF, 60 mg BID (n = 42)): 1 (2.4) no. (%)
- Orthostatic hypotension (TEAE) ([1]; PPF, 60 mg BID (n = 42)): 4 (9.5) no. (%)
- Orthostatic hypotension within asymptomatic blood pressure reduction ([1]; PPF, 60 mg BID (n = 42)): 11 (26.2) no. (%)
- Orthostatic hypotension within symptomatic blood pressure reduction ([1]; PPF, 60 mg BID (n = 42)): 4 (9.5) no. (%)
- Rash ([1]; PPF, 60 mg BID (n = 42)): 0 no. (%)
- Symptomatic blood pressure reduction (prespecified criteria) ([1]; PPF, 60 mg BID (n = 42)): 6 (14.3) no. (%)
- Vomiting ([1]; PPF, 60 mg BID (n = 42)): 0 no. (%)
- ≥1 TEAE ([1]; PPF, 60 mg BID (n = 42)): 28 (66.7) no. (%)
- ≥1 TEAE related to study drug ([1]; PPF, 60 mg BID (n = 42)): 11 (26.2) no. (%)
- ≥1 TESAE ([1]; PPF, 60 mg BID (n = 42)): 5 (11.9) no. (%)
- Treatment discontinuations ([1]; PPF, 60 mg BID): 4.8%
- Orthostatic hypotension (asymptomatic and symptomatic) versus other groups ([1]; PPF, 60 mg group): higher in the 60 mg group than for other groups
- Nadir postdose reduction from baseline in mean seated systolic blood pressure ([1]; PPF, 60 mg): −12.7 mmHg
- Maximum of mean (±SD) reduction in DBP from baseline (column printed under the head Baseline (mmHg)) ([2]; Japanese MAD 30 BID (C1)): 8.8 ± 5.12 mmHg
- Maximum of mean (±SD) reduction in SBP from baseline ([2]; Japanese MAD 30 BID (C1)): 15.0 ± 6.84 mmHg
- Time of maximum mean SBP reduction ([2]; Japanese MAD 30 BID (C1)): 1-4 Day-h
- Maximum of mean (±SD) reduction in DBP from baseline (column printed under the head Baseline (mmHg)) ([2]; Japanese MAD 60 BID (C2)): 8.2 ± 10.40 mmHg
- Maximum of mean (±SD) reduction in SBP from baseline ([2]; Japanese MAD 60 BID (C2)): 13.0 ± 8.22 mmHg
- Time of maximum mean DBP reduction ([2]; Japanese MAD 60 BID (C2)): 4-16 Day-h
- Time of maximum mean SBP reduction ([2]; Japanese MAD 60 BID (C2)): 2-16 Day-h
- Maximum of mean (±SD) reduction in DBP from baseline (column printed under the head Baseline (mmHg)) ([2]; Japanese MAD 90 BID (C2)): 8.0 ± 8.22 mmHg
- Maximum of mean (±SD) reduction in SBP from baseline ([2]; Japanese MAD 90 BID (C2)): 11.8 ± 8.47 mmHg
- Time of maximum mean DBP reduction ([2]; Japanese MAD 90 BID (C2)): 1-6 Day-h
- Time of maximum mean SBP reduction ([2]; Japanese MAD 90 BID (C2)): 1-6 Day-h
- Dose dependence of mean BP reduction ([2]; Japanese MAD cohorts): no clear Compound A dose-dependent BP reduction trend
- Kb [3]: 5.9 nM
